Experimental data: paper PMC11513923, “Discovery of ZLC491 as a Potent, Selective, and Orally Bioavailable CDK12/13 PROTAC Degrader” (Journal of Medicinal Chemistry, 2024)
Where a SMILES comes first, the peptide text is derived from it. The star is where a group is joined. Cbz = O=C(OCc1ccccc1)*

Tests used:
[1] = molecular target: T1, CDK13 (Homo sapiens, UniProt Q14004); test: CDK13 degradation in MDA-MB-231 cells by immunoblotting; assay type: cell-based; details: 0.3 μM; for Protein Degradation (%DMSO control, 0.3 μM) CDK13: MDA-MB-231 cells, 15 h, immunoblotting, normalized against α-tubulin; for Degradation rates of CDK13 at 0.3 μM: supplementary CSV;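 for Protein Degradation (%DMSO control, 0.3 μM) CDK13: percent of CDK13 protein degraded relative to DMSO control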
T1 construct: Immunoblotting of CDK12 and CDK13 in MDA-MB-231 cells treated with increasing concentrations of ZLC491 for 15 h; endogenous in cells; host or cells: MDA-MB-231
Method: (§1) The degradation efficiency of the new molecules was assessed by immunoblotting after treatment with the compounds at 0.3 μM in MD-MBA-231 cells for 15 h.
(§2) To further characterize the compound, we determined the half-degradation concentration (DC50) values of ZLC491 in MDA-MB-231 cells. […] We also treated MDA-MB-231 cells with 1 μM ZLC491 at various time points.
(§3) (A) Immunoblotting of CDK12 and CDK13 in MDA-MB-231 cells treated with increasing concentrations of ZLC491 for 15 h (left). Percent remaining CDK12 and CDK13 proteins were plotted for DC50 determination (right). Protein levels were quantified using ImageJ and normalized to corresponding α-tubulin, then plotted using Graphpad Prism 8.0. The data were representative of three independent experiments; (B) immunoblotting of CDK12 and CDK13 proteins in MDA-MB-231 cells treated with ZLC491 for various time points; immunoblotting of CDK12 and CDK13 in HCC38 (C) and MDA-MB-436 (D) cells treated with increasing concentrations of ZLC491 for 15 h. α-Tubulin was used as a loading control. TEXT PRINTED IN THE PICTURE: (A) ZLC491: MDA-MB-231: CDK12 DC50 = 0.032μM; MDA-MB-231: CDK13 DC50 = 0.028μM DOUBTS OF THE COPYIST ABOUT THIS PICTURE: ZLC491, CDK12 DC50: 0.032 read from small print, the digits 3 and 2 are uncertain / ZLC491, CDK13 DC50: 0.028 read from small print, the last digit may be 8, 6 or 3
(§4) Generally, the tested cells were washed by ice-cold PBS buffer (Gibco) and lysed with an SDS lysis buffer (62.5 mM Tris, 2% w/v SDS, 10 glycerol, 50 mM DTT, 0.01% w/v bromophenol blue) on ice, after which the protein lysate samples were collected to 1.5 mL microcentrifuge tubes and treated with ultrasonic for 10 s, following with a 100 °C incubation for 10 min and a 4 °C centrifugation of 12000 rpm for 10 min. An equal amount of protein was loaded to 4–8% Bis-Tris gels and underwent an SDS-PAGE electrophoresis at 55V for 30 min and 95V for 90 min. Proteins on gels were then transferred to a polyvinylidene difluoride (PVDF) membrane (Bio-Rad) with a wet electro transfer system (Bio-Rad). The PVDF membrane was cut into bands and incubated in a blocking reagent (5% defatted milk powder dissolved in TBST) at room temperature for 1–2 h. Incubate membrane and primary antibody (at the appropriate dilution and diluent as recommended in the product webpage) at 4 °C for 12–14 h, followed with three times washes by TBST. The washed membranes were incubated in a secondary antibody solution (HRP-linked antirabbit IgG or antimouse IgG (CST), 1:2000 diluted into TBST) at room temperature for 2 h. Membranes were photographed in Amersham Imager 800 system using StarSignal plus regent (GenStar) or Omni-ECL reagent (EpiZyme). Compounds MG132, MLN4924, Bafilomycin A1 and pomalidomide were purchased from MedChemExpress (MCE) LLC.

[2] = molecular target: CDK12 (Homo sapiens, UniProt Q9NYV4); test: CDK12 degradation in MDA-MB-231 cells by immunoblotting; assay type: cell-based; set-up: Immunoblotting of CDK12 and CDK13 in MDA-MB-231 cells treated with increasing concentrations of ZLC491 for 15 h; endogenous in cells; host or cells: MDA-MB-231; details: 0.3 μM; for Protein Degradation (%DMSO control, 0.3 μM) CDK12: MDA-MB-231 cells, 15 h, immunoblotting, normalized against α-tubulin; for Degradation rates of CDK12 at 0.3 μM: supplementary CSV
Method: as §1, §2, §3, §4

[3] = Pharmacokinetics in rats; assay type: in vivo, rat
Method: We further evaluated the in vivo PK properties of compound ZLC491 and the counterpart 4m (without F substitution) in rats, and the results were summarized in Table 2. […] The PK profiles of F-containing compound ZLC491 were further improved.
The pharmacokinetic investigation was taken by Shanghai Medicilon Inc. (Project Code: 26048-23001-NG). Sprague–Dawley male rats (Specific pathogen Free (SPF), provided by Zhejiang Vital River Laboratory Animal Technology Co. Ltd.) were dosed with ZLC491 solution formulation (5% DMSO, 10% Solutol, 85% normal saline, 2.5 mg/kg for intravenous dose, 10 mg/kg for oral dose) or compound 4m solution formulation (5% DMSO, 10% Solutol, 85% (20%HP-β-CD), 2.5 mg/kg for intravenous dose, 10 mg/kg for oral dose). Blood samples were collected at 0.083, 0.25, 0.5, 1, 2, 4, 8, and 24 h in intravenous administration, 0.25, 0.5, 1, 2, 4, 6, 8, and 24 h in oral administration. The blood samples were collected from sets of three rats at each time point in labeled microcentrifuge tubes containing heparin sodium as an anticoagulant. Plasma samples were separated by centrifugation (2–8 °C, 6800g for 6 min) within 1 h and stored below −80 °C until bioanalysis. All samples were processed for analysis by precipitation using acetonitrile and analyzed with a partially validated LC/MS/MS method. Pharmacokinetic parameters were calculated using the noncompartmental analysis tool of WinNonlin Enterprise software.

[4] = tested on: CDK12/13; test: Mechanism study: pretreatment before ZLC491, immunoblotting of CDK12/13 in MDA-MB-231 cells; assay type: cell-based, human; details: 2 h pretreatment (1 μM MG132, 0.1 μM MLN4924, 0.1 μM bafilomycin, 5 μM pomalidomide, 8 μM compound 5), then 1 μM ZLC491 10 h
Method: We further investigated the mechanism of action of ZLC491-mediated CDK12/13 degradation. […] Additionally, pretreatment with CRBN ligand pomalidomide or the warhead compound 5 also reversed the ZLC491-mediated CDK12/13 degradation in MDA-MB-231 cells (Figure 4D,E).
Figure 4 ZLC491 induced CDK12/13 degradation in a CRBN- and proteasome-dependent fashion. Immunoblotting of CDK12 and CDK13 in MDA-MB-231 cells treated with 1 μM ZLC491 for 10 h with or without pretreatment with 1 μM MG132 (A), 0.1 μM MLN4924 (B), 0.1 μM bafilomycin (C), 5 μM pomalidomide (D) and 8 μM compound 5 (E) for 2 h; (F) immunoblotting of CDK12 and CDK13 in MDA-MB-231 cells treated with 1 μM ZLC491N for 10 h. α-Tubulin was used as a loading control.
as §4

[5] = male, Sprague-Dawley, rat, plasma, oral bioavailability, p.o. 10 mg/kg vs i.v. 2.5 mg/kg

T1 sequence (Q14004 whole entry): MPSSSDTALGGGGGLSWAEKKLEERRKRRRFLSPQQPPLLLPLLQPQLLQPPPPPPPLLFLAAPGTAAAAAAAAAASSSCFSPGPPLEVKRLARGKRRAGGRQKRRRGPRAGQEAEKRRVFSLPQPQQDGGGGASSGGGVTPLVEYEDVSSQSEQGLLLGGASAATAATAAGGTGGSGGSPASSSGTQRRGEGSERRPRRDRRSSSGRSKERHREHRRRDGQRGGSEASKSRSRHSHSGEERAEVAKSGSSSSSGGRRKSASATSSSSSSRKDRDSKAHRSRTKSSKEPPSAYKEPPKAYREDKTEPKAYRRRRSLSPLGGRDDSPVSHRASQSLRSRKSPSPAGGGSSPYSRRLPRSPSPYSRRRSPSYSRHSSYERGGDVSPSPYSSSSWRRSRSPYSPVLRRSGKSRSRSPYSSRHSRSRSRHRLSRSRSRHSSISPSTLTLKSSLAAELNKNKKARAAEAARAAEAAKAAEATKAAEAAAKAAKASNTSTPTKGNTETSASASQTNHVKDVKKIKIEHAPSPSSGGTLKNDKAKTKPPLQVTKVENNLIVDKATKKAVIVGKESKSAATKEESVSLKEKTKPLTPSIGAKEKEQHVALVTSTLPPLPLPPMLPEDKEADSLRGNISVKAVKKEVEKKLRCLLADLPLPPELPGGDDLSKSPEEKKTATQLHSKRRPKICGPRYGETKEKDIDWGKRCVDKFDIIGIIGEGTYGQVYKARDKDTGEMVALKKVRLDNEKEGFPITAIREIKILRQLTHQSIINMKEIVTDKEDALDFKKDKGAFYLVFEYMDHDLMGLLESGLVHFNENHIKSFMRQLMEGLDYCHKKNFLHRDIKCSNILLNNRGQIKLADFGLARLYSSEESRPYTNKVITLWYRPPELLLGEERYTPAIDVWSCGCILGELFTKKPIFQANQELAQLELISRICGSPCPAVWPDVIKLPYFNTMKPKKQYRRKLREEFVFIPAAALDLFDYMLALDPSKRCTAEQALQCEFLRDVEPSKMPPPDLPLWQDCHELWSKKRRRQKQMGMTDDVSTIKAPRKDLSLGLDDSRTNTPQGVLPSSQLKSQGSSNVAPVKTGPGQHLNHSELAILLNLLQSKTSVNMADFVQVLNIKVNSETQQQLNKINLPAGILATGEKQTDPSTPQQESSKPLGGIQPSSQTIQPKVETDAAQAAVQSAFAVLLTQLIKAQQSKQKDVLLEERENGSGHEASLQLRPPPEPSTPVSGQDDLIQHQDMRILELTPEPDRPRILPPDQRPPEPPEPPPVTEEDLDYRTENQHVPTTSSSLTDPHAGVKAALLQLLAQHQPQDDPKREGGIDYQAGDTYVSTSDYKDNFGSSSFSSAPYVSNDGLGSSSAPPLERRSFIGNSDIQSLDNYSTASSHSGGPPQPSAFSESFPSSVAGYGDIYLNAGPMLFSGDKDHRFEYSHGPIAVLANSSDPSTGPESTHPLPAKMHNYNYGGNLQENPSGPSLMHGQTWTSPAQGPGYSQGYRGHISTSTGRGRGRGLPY
T1 sequence (O75909 whole entry partner): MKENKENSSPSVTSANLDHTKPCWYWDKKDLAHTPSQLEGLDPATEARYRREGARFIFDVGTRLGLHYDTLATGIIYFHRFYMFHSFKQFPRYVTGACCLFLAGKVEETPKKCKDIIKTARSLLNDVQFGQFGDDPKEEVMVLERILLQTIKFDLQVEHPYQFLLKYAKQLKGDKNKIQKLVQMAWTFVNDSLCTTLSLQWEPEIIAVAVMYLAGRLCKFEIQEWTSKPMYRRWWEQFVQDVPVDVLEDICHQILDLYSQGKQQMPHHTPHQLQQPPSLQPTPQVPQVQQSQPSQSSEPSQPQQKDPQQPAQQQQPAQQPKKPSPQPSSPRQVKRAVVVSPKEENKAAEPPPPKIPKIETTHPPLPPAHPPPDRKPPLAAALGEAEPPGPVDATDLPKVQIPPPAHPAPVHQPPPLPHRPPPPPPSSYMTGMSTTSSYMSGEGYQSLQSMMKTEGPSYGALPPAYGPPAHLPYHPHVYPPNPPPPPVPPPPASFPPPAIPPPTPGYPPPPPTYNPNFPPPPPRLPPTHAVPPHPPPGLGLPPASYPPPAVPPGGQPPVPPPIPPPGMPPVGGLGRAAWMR
Sequence of CDK12 (Q9NYV4 whole entry): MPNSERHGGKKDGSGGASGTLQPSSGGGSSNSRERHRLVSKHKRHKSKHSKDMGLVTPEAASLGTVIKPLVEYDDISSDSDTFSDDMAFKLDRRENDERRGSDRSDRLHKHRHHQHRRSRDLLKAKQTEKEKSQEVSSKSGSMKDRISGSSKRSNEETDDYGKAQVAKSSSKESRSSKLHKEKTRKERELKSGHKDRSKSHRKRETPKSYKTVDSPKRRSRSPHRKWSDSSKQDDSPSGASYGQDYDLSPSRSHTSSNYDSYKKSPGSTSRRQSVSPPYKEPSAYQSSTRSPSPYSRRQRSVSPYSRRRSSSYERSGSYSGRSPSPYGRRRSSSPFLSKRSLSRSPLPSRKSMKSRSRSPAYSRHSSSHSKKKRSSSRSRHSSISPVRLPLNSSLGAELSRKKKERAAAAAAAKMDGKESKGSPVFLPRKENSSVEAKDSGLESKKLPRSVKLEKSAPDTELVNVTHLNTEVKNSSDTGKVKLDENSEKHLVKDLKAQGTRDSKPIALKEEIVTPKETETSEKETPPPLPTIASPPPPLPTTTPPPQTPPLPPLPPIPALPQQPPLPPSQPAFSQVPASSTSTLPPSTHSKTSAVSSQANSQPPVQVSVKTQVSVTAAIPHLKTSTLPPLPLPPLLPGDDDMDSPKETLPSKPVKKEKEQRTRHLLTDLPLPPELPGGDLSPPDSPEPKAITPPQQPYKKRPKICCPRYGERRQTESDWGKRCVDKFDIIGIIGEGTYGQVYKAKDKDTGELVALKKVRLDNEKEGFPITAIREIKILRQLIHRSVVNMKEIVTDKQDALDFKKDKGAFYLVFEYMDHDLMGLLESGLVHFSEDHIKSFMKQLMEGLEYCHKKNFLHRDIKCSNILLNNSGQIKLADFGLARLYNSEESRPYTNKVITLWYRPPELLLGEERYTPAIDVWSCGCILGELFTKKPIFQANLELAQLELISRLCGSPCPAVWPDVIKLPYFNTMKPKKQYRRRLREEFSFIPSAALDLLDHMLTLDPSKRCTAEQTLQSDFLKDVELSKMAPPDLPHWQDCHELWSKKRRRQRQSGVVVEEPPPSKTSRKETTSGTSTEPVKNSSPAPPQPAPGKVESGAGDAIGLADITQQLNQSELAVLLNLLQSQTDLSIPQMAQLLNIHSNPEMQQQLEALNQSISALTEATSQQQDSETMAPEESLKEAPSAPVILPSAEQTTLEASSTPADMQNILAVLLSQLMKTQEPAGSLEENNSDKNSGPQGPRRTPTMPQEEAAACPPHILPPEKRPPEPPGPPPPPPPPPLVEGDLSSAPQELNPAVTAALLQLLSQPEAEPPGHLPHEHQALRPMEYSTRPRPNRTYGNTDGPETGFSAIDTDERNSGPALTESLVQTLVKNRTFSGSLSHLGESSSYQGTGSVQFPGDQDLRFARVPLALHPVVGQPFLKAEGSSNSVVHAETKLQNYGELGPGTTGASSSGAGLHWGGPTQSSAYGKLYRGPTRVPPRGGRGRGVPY
Sequence of CDK12 (O75909 whole entry partner): as the sequence (O75909 whole entry partner) above

For `N#Cc1ccc(N[C@H]2CC[C@H](N(C(=O)NCc3ccccc3)c3ccc(N4CCN(C5CCN(c6ccc7c(c6)C(=O)N(C6CCC(=O)NC6=O)C7=O)C5)CC4)cc3)CC2)nc1` (stereo partly drawn) [4l, 3-Benzyl-1-((1r,4r)-4-((5-cyanopyridin-2-yl)amino)cyclohexyl)-1-(4-(4-(1-(2-(2,6-dioxopiperidin-3-yl)-1,3-dioxoisoindolin-5-yl)pyrrolidin-3-yl)piperazin-1-yl)phenyl)urea], the “Protein Degradation (%DMSO control, 0.3 μM) CDK13” value [1] was 40%, the Degradation rates of CDK13 at 0.3 μM [1] was 40% and the “Protein Degradation (%DMSO control, 0.3 μM) CDK12” value [2] was 17%. It also gave a Degradation rates of CDK12 at 0.3 μM [2] of 17%.

In the case of `N#Cc1ccc(N[C@H]2CC[C@H](N(C(=O)NCc3ccccc3)c3ccc(N4CCN(C5CCN(c6ccc7c(c6)C(=O)N(C6CCC(=O)NC6=O)C7=O)CC5)CC4)cc3)CC2)nc1` (stereo partly drawn) [4m, 3-Benzyl-1-((1r,4r)-4-((5-cyanopyridin-2-yl)amino)cyclohexyl)-1-(4-(4-(1-(2-(2,6-dioxopiperidin-3-yl)-1,3-dioxoisoindolin-5-yl)piperidin-4-yl)piperazin-1-yl)phenyl)urea], the “Protein Degradation (%DMSO control, 0.3 μM) CDK13” value [1] is reported as 85%, the Degradation rates of CDK13 at 0.3 μM [1] is reported as 85% and the “CL” value ([3]; i.v. 2.5 mg/kg) is reported as 9.85 mL/min/kg. The bioavailability [3, 5] was 16%, the bioavailability at 24 h [3, 5] was 16.5% and the “Protein Degradation (%DMSO control, 0.3 μM) CDK12” value [2] was 70%. The Degradation rates of CDK12 at 0.3 μM [2] was 70%.

With `N#Cc1ccc(N[C@H]2CC[C@H](N(C(=O)NCc3ccccc3)c3ccc(N4CCC5(CC4)CN(c4ccc6c(c4)C(=O)N(C4CCC(=O)NC4=O)C6=O)C5)cc3)CC2)nc1` (stereo partly drawn) [4n, 3-Benzyl-1-((1r,4r)-4-((5-cyanopyridin-2-yl)amino)cyclohexyl)-1-(4-(2-(2-(2,6-dioxopiperidin-3-yl)-1,3-dioxoisoindolin-5-yl)-2,7-diazaspiro[3.5]nonan-7-yl)phenyl)urea] the “Protein Degradation (%DMSO control, 0.3 μM) CDK13” value [1] was 85%, the Degradation rates of CDK13 at 0.3 μM [1] was 85% and the “Protein Degradation (%DMSO control, 0.3 μM) CDK12” value [2] was 63%. For the same molecule, the Degradation rates of CDK12 at 0.3 μM [2] was 63%.

In the case of `N#Cc1ccc(N[C@H]2CC[C@H](N(C(=O)NCc3ccccc3)c3ccc(N4CCC5(CC4)CCN(c4ccc6c(c4)C(=O)N(C4CCC(=O)NC4=O)C6=O)C5)cc3)CC2)nc1` (stereo partly drawn) [4o, 3-Benzyl-1-((1r,4r)-4-((5-cyanopyridin-2-yl)amino)cyclohexyl)-1-(4-(2-(2-(2,6-dioxopiperidin-3-yl)-1,3-dioxoisoindolin-5-yl)-2,8-diazaspiro[4.5]decan-8-yl)phenyl)urea], the “Protein Degradation (%DMSO control, 0.3 μM) CDK13” value [1] is reported as 47%, the Degradation rates of CDK13 at 0.3 μM [1] is reported as 47% and the “Protein Degradation (%DMSO control, 0.3 μM) CDK12” value [2] is reported as 27%. The Degradation rates of CDK12 at 0.3 μM [2] was 27%.

In the case of `N#Cc1ccc(N[C@H]2CC[C@H](N(C(=O)NCc3ccccc3)c3ccc(N4CCC5(CC4)CCN(c4ccc6c(c4)C(=O)N(C4CCC(=O)NC4=O)C6=O)CC5)cc3)CC2)nc1` (stereo partly drawn) [4p, 3-Benzyl-1-((1r,4r)-4-((5-cyanopyridin-2-yl)amino)cyclohexyl)-1-(4-(9-(2-(2,6-dioxopiperidin-3-yl)-1,3-dioxoisoindolin-5-yl)-3,9-diazaspiro[5.5]undecan-3-yl)phenyl)urea], the “Protein Degradation (%DMSO control, 0.3 μM) CDK13” value [1] is reported as 66%, the Degradation rates of CDK13 at 0.3 μM [1] is reported as 66% and the “Protein Degradation (%DMSO control, 0.3 μM) CDK12” value [2] is reported as 42%. It also gave a Degradation rates of CDK12 at 0.3 μM [2] of 42%.

In the case of `CC(C)C[C@@H](C=O)NC(=O)[C@H](CC(C)C)NC(=O)[C@H](CC(C)C)NC(=O)OCc1ccccc1` [MG132] (Cbz-Leu-Leu-Leu-aldehyde), the “effect of pretreatment on ZLC491-induced CDK12/13 degradation” value (shortened to “effect of pretreatment”) [4] is reported as “significantly blocked”.

In the case of `NS(=O)(=O)OC[C@@H]1C[C@@H](n2ccc3c(N[C@H]4CCc5ccccc54)ncnc32)C[C@@H]1O` [MLN4924], the “effect of pretreatment” value [4] is reported as “significantly blocked”.

With `N#Cc1ccc(N[C@H]2CC[C@H](N(C(=O)NCc3ccccc3)c3ccc(N4CCNCC4)cc3)CC2)nc1` [compound 5, 3-Benzyl-1-((1r,4r)-4-((5-cyanopyridin-2-yl)amino)cyclohexyl)-1-(4-(piperazin-1-yl)phenyl)urea] the “effect of pretreatment” value [4] was “reversed”.

For `Nc1cccc2c1C(=O)N(C1CCC(=O)NC1=O)C2=O` (stereo not drawn) [pomalidomide], the “effect of pretreatment” value [4] was “reversed”.
